For the experiment, the target named is T1, human recombinant GPR65 (Homo sapiens, UniProt Q8IYL9).
T1 construct: host or cells: 1321N1 human astrocytoma cells (1321N1-hrGPR65)
Briefly: Human GPR65 cAMP HTRF antagonist assay. To be noted: 1321N1-hrGPR65 cells, assay pH 7.2, cAMP HTRF; read-out: hGPR65 IC50. Type of experiment: cell-based. The essentials:
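1321N1 cells stably expressing human GPR65 were preincubated 30 min at room temperature with compound in KRH pH 7.6 containing 1 mM IBMX and 200 μM EDTA. They were then acid-stimulated to pH 7.2 for 30 min, with pH 7.9 as control. cAMP was read by HTRF (665/620 ratio), and IC50 came from normalised 4-parameter logistic fits.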
In general terms: Time-resolved FRET reads energy transfer from a long-lived donor to a nearby acceptor.

Where only a bound is given, the exact number is not on record here.

T1 sequence (Q8IYL9 whole entry): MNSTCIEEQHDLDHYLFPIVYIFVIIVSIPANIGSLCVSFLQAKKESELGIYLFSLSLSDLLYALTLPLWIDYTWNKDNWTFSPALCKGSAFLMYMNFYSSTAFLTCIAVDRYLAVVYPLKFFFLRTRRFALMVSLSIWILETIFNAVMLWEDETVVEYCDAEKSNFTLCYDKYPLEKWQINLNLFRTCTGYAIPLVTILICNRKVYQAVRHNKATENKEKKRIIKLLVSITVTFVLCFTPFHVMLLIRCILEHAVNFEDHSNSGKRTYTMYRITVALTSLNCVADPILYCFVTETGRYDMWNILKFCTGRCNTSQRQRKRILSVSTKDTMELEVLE

The IC50 is the midpoint of a concentration-inhibition curve. `CN(C(=O)C(F)(F)F)c1ccc(-c2cc(F)c(NC(=O)N3[C@H]4CC[C@@H]3c3c[nH]c(=O)cc3C4)cc2Cl)cn1` [Compound 31, (6S,9R)-N-(5-chloro-2-fluoro-4-(6-(2,2,2-trifluoro-N-methylacetamido)pyridin-3-yl)phenyl)-3-oxo-3,5,6,7,8,9-hexahydro-2H-6,9-epiminocyclohepta[c]pyridine-10-carboxamide]: the IC50 was in the range of 500 to 5000 nM.

Turning to `O=C(Nc1cc(Cl)c(-c2ccc(NCC(F)(F)F)nc2)cc1F)N1[C@H]2CC[C@@H]1c1n[nH]c(=O)cc1C2` [Compound 2, (6S,9R)-N-(5-chloro-2-fluoro-4-(6-((2,2,2-trifluoroethyl)amino)pyridin-3-yl)phenyl)-3-oxo-3,5,6,7,8,9-hexahydro-2H-6,9-epiminocyclohepta[c]pyridazine-10-carboxamide], the half-inhibitory concentration (IC50) is < 500 nM.

`O=C(Nc1cc(Cl)c(-c2ccc(OCC3CNC3)nc2)cc1F)N1[C@H]2CC[C@@H]1c1c[nH]c(=O)cc1C2` [Compound 63, (6S,9R)-N-(4-(6-(Azetidin-3-ylmethoxy)pyridin-3-yl)-5-chloro-2-fluorophenyl)-3-oxo-3,5,6,7,8,9-hexahydro-2H-6,9-epiminocyclohepta[c]pyridine-10-carboxamide]: the IC50 lay within 500 to 5000 nM. In the case of `N#Cc1cc(NC(=O)N2[C@H]3CC[C@@H]2c2ccnc(F)c2C3)c(F)cc1Cl` [Compound 45, (5R,8S)-N-(4-chloro-5-cyano-2-fluorophenyl)-1-fluoro-6,7,8,9-tetrahydro-5H-5,8-epiminocyclohepta[c]pyridine-10-carboxamide], the IC50 is < 500 nM. Consider `O=C(Nc1cc(Cl)c(Cl)cc1OCC1(F)CC1)N1[C@H]2CC[C@@H]1c1n[nH]c(=O)cc1C2` [Compound 89, (6S,9R)-N-(4,5-Dichloro-2-((1-fluorocyclopropyl)methoxy)phenyl)-3-oxo-3,5,6,7,8,9-hexahydro-2H-6,9-epiminocyclohepta[c]pyridazine-10-carboxamide], for which the IC50 is > 5000 nM. Turning to `O=C(Nc1cc(Cl)c(Cl)cn1)N1C2CCC1[C@H](F)c1c2ccnc1F` (mixture of isomers) [Compound 35, (±)(9S)-N-(4,5-dichloropyridin-2-yl)-1,9-difluoro-6,7,8,9-tetrahydro-5H-5,8-epiminocyclohepta[c]pyridine-10-carboxamide], the IC50 is < 500 nM. Consider `O=C(Nc1cc(Cl)c(Cl)cc1F)N1[C@H]2CC[C@@H]1c1ccncc1C2` [Compound 49, (5R,8S)-N-(4,5-dichloro-2-fluorophenyl)-6,7,8,9-tetrahydro-5H-5,8-epiminocyclohepta[c]pyridine-10-carboxamide], for which the IC50 was < 500 nM. With `Cc1cc(NC(=O)N2[C@H]3CC[C@@H]2c2c[nH]c(=O)cc2C3)c(F)cc1-c1ccc(OCC(F)(F)F)nc1` [Compound 18, (6S,9R)-N-(2-fluoro-5-methyl-4-(6-(2,2,2-trifluoroethoxy)pyridin-3-yl)phenyl)-3-oxo-3,5,6,7,8,9-hexahydro-2H-6,9-epiminocyclohepta[c]pyridine-10-carboxamide] the figure was < 500 nM; with `CN1CC2(COc3ccc(-c4cc(F)c(NC(=O)N5[C@H]6CC[C@@H]5c5c[nH]c(=O)cc5C6)cc4Cl)cn3)CC1C2` [Compound 61, (6S,9R)-N-(5-Chloro-2-fluoro-4-(6-((2-methyl-2-azabicyclo[2.1.1]hexan-4-yl)methoxy)pyridin-3-yl)phenyl)-3-oxo-3,5,6,7,8,9-hexahydro-2H-6,9-epiminocyclohepta[c]pyridine-10-carboxamide], 500 to 5000 nM; with `O=C(Nc1cc(Cl)c(-c2ccc(OCC(F)(F)F)nc2)cc1F)N1C2CCC1C(F)(F)c1c2ccnc1F` (racemic) [Compound 70, (±)-N-(5-Chloro-2-fluoro-4-(6-(2,2,2-trifluoroethoxy)pyridin-3-yl)phenyl)-1,9,9-trifluoro-6,7,8,9-tetrahydro-5H-5,8-epiminocyclohepta[c]pyridine-10-carboxamide], < 500 nM. With `O=C(Nc1cc(Cl)c(-c2ccc(OC(C(F)F)C(F)F)nc2)cc1F)N1[C@H]2CC[C@@H]1c1c[nH]c(=O)cc1C2` [Compound 13, (6S,9R)-N-(5-chloro-2-fluoro-4-(6-((1,1,3,3-tetrafluoropropan-2-yl)oxy)pyridin-3-yl)phenyl)-3-oxo-3,5,6,7,8,9-hexahydro-2H-6,9-epiminocyclohepta[c]pyridine-10-carboxamide] the figure was < 500 nM; with `O=C(Nc1cc(Cl)c(-c2ccc3nonc3c2)cn1)N1C2CCC1[C@H](F)c1c2ccnc1F` (mixture of isomers) [Compound 5, (±,9S)-N-(5-(benzo[c][1,2,5]oxadiazol-5-yl)-4-chloropyridin-2-yl)-1,9-difluoro-6,7,8,9-tetrahydro-5H-5,8-epiminocyclohepta[c]pyridine-10-carboxamide], < 500 nM.

In the case of `O=C(Nc1cc(Cl)c(-c2ccc(OC[C@H]3CC3(F)F)nc2)cc1F)N1[C@H]2CC[C@@H]1c1c[nH]c(=O)cc1C2` [Compound 82, (6S,9R)-N-(5-Chloro-4-(6-(((R)-2,2-difluorocyclopropyl)methoxy)pyridin-3-yl)-2-fluorophenyl)-3-oxo-3,5,6,7,8,9-hexahydro-2H-6,9-epiminocyclohepta[c]pyridine-10-carboxamide], the IC50 was < 500 nM. To `O=C(Nc1cc(Cl)c(-c2ccc(OCC3CN(CC(F)(F)F)C3)nc2)cc1F)N1[C@H]2CC[C@@H]1c1c[nH]c(=O)cc1C2` [Compound 32, (6S,9R)-N-(5-chloro-2-fluoro-4-(6-((1-(2,2,2-trifluoroethyl)azetidin-3-yl)methoxy)pyridin-3-yl)phenyl)-3-oxo-3,5,6,7,8,9-hexahydro-2H-6,9-epiminocyclohepta[c]pyridine-10-carboxamide] belongs < 500 nM. With `O=C(Nc1ccc(-c2ccc(OCC(F)(F)F)nc2)cc1F)N1[C@H]2CC[C@@H]1c1n[nH]c(=O)cc1C2` [Compound 21, (6S,9R)-N-(2-fluoro-4-(6-(2,2,2-trifluoroethoxy)pyridin-3-yl)phenyl)-3-oxo-3,5,6,7,8,9-hexahydro-2H-6,9-epiminocyclohepta[c]pyridazine-10-carboxamide] the figure was < 500 nM. As for `CN(C(=O)N1[C@H]2CC[C@@H]1c1n[nH]c(=O)cc1C2)c1cc(Cl)c(-c2ccc(OCC(F)(F)F)nc2)cc1F` [Compound 9, (6S,9R)-N-(5-chloro-2-fluoro-4-(6-(2,2,2-trifluoroethoxy)pyridin-3-yl)phenyl)-N-methyl-3-oxo-3,5,6,7,8,9-hexahydro-2H-6,9-epiminocyclohepta[c]pyridazine-10-carboxamide], the IC50 lay in the range of 500 to 5000 nM. With `O=C(Nc1cc(Cl)c(-c2ccc(OC3CCS(=O)(=O)CC3)nc2)cc1F)N1[C@H]2CC[C@@H]1c1n[nH]c(=O)cc1C2` [Compound 87, (6S,9R)-N-(5-Chloro-4-(6-((1,1-dioxidotetrahydro-2H-thiopyran-4-yl)oxy)pyridine-3-yl)-2-fluorophenyl)-3-oxo-3,5,6,7,8,9-hexahydro-2H-6,9-epiminocyclohepta[c]pyridazine-10-carboxamide] the figure was < 500 nM; with `CN(CC(F)(F)F)c1cc(-c2cc(F)c(NC(=O)N3[C@H]4CC[C@@H]3c3c[nH]c(=O)cc3C4)cc2Cl)ccn1` [Compound 43, (6S,9R)-N-(5-chloro-2-fluoro-4-(2-(methyl(2,2,2-trifluoroethyl)amino)pyridin-4-yl)phenyl)-3-oxo-3,5,6,7,8,9-hexahydro-2H-6,9-epiminocyclohepta[c]pyridine-10-carboxamide], < 500 nM. As to `O=C(Nc1cc(Cl)c(NCc2cccc(OCC(F)(F)F)n2)cc1F)N1[C@H]2CC[C@@H]1c1n[nH]c(=O)cc1C2` [Compound 64, (6S,9R)-N-(5-chloro-2-fluoro-4-(((6-(2,2,2-trifluoroethoxy)pyridin-2-yl)methyl)amino)phenyl)-3-oxo-3,5,6,7,8,9-hexahydro-2H-6,9-epiminocyclohepta[c]pyridazine-10-carboxamide], the IC50 was < 500 nM. Regarding `O=C(Nc1cc(Cl)c(C(F)(F)F)cc1F)N1[C@H]2CC[C@@H]1c1cc[n+]([O-])cc1C2` [Compound 67, (5R,8S)-10-((5-chloro-2-fluoro-4-(trifluoromethyl)phenyl)carbamoyl)-6,7,8,9-tetrahydro-5H-5,8-epiminocyclohepta[c]pyridine 2-oxide], the IC50 is < 500 nM.

In the case of `O=C(Nc1cc(Cl)c(-c2ccc(OC[C@@H]3CCOC3)nc2)cc1F)N1[C@H]2CC[C@@H]1c1c[nH]c(=O)cc1C2` (single isomer, unassigned) [Compound 47], the IC50 was < 500 nM. With `O=C(Nc1cc(Cl)c(COc2ccc(F)cn2)cc1F)N1[C@H]2CC[C@@H]1c1n[nH]c(=O)cc1C2` [Compound 51, (6S,9R)-N-(5-Chloro-2-fluoro-4-(((5-fluoropyridin-2-yl)oxy)methyl)phenyl)-3-oxo-3,5,6,7,8,9-hexahydro-2H-6,9-epiminocyclohepta[c]pyridazine-10-carboxamide] the figure was < 500 nM; with `O=C(Nc1cc(Cl)c(Cl)cc1OCC1CC1(F)F)N1[C@H]2CC[C@@H]1c1n[nH]c(=O)cc1C2` (stereo partly drawn) [Compound 88, (6S,9R)-N-(4,5-Dichloro-2-((2,2-difluorocyclopropyl)methoxy)phenyl)-3-oxo-3,5,6,7,8,9-hexahydro-2H-6,9-epiminocyclohepta[c]pyridazine-10-carboxamide], > 5000 nM; with `O=C(Nc1cc(Cl)c(-c2ccc(OC3CCCC3)nc2)cc1F)N1[C@H]2CC[C@@H]1c1c[nH]c(=O)cc1C2` [Compound 10, (6S,9R)-N-(5-chloro-4-(6-(cyclopentyloxy)pyridin-3-yl)-2-fluorophenyl)-3-oxo-3,5,6,7,8,9-hexahydro-2H-6,9-epiminocyclohepta[c]pyridine-10-carboxamide], < 500 nM.
